The values that follow come from patent US10344054B2, “Angiotensin-1-receptor antagonists” (Ferring B.V., priority 2016, dated 2019).

The target in assay [1] is T1, hAT1R (Homo sapiens, UniProt P30556).
T1 sequence (P30556 1-359): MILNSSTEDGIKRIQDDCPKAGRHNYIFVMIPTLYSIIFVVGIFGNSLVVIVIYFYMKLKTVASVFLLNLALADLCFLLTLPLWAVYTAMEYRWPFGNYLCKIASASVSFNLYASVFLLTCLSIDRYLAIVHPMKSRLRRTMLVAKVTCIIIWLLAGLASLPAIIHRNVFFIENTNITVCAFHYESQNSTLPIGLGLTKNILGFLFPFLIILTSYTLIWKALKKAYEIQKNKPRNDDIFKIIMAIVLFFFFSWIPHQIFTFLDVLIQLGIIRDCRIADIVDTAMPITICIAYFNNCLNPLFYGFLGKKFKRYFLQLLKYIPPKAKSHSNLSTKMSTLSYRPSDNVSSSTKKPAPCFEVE
The assay can be described thus: FLIPR calcium flux assay, Part I: agonist activity. In kind it is cell-based. Conditions: ChanTest hAT1R stable cells; % MPE, percent of the maximal possible effect; read-out: hAT1R Agonist Efficacy Agonist (%) Ave. The protocol:
(§1) AT1 receptor (AT1R) agonists increase intracellular flux of calcium ions. AT1R antagonists can reduce the agonist effect. […] Compounds were first tested for agonism (Part I) followed by addition of the AT1R agonist angiotensin II to test for antagonist activity (Part II). This assay used a stable hAT1R expressing cell line (ChanTest hAT1R; ChanTest Corp A628). Intracellular flux of calcium in response to agonist was measured through real-time measurement of fluorescence induced through the interaction of Ca2+ (released from intracellular stores) and calcium-sensitive dye. In Part I, cells were exposed to varying concentrations of test compounds and immediately measured for agonist activity (EC50 and Efficacy).
(§2) ChanTest hAT1R stable cells were maintained in Ham's F12 containing 10% (v/v) heat inactivated fetal bovine serum (FBS-HI), 4 mM Glutamax, 1% NEAA, 50 ng/mL plasmocin, 400 μg/mL G418 at 37° C. under 5% CO2 in a humidified atmosphere.
(§3) For FLIPR assay, ChanTest hAT1R cells were trypsinized with 6 ml of Trypsin EDTA solution and harvested in phenol-red free DMEM containing 10% FBS-HI, 4 mM Glutamax and counted, spun down and resuspended in the same medium. The cell suspension was added to the wells of 384-well black PDL clear bottom plates at 2.5×10^4 cells/well, 20 μl/well.
(§4) Preparation of Loading Buffer:
(§5) • Loading Buffer: 1 vial of Calcium 5 Bulk Assay reagent was dissolved in 100 ml of 1× HBSS-20 mM Hepes buffer. • Probenecid was resuspended at 1 M in 1 M NaOH. Once the probenecid had gone into solution, an equal volume of H2O was added to make a solution of 500 mM followed by a 1:100 dilution in the Loading Buffer for a working concentration of 5 mM. The pH was adjusted to 7.4 using 1 M NaOH. Loading the Cells with Loading Buffer • Cell plates were removed from the incubator and 25 μl of Loading Buffer containing probenecid (5 mM) added to each well. • Plates were incubated for 1 hour at 37° C. under 5% CO2 in a humidified atmosphere. […] The remaining steps of the assay were carried forward by FLIPR Tetra. A baseline reading was taken at 1-second (s) intervals for 10 s followed by the addition of 5 μl of 10× compounds. The compound-induced fluorescence signal was then measured for 3 minutes with readings taken at 1-s intervals. • The cell plate was removed from the FLIPR and set aside for an additional 17 minutes. • The cell plate was then transferred back to the FLIPR Tetra, along with the 384 well Angiotensin II agonist dilution plate. A baseline reading was taken at 1-second (s) intervals for 10 seconds, followed by the addition of 5.5 μl of 10× Angiotensin II agonist. The agonist-induced fluorescence signal was then measured for 3 minutes with readings taken at 1-s intervals. • Overall, each well in the FLIPR assay was composed of the following components in a total volume of 55.5 μl:
(§6) Time-course results from the FLIPR Calcium 5 assay were expressed as relative fluorescence light units (RFU). The maximum minus minimum values (Max−Min) were used to quantify the strength of the signal. Mean RFU were calculated from replicate values and plotted on the y-axis versus compound concentration on a logarithmic scale on the x-axis, and a single-binding site, four parameter concentration response model: (MIN+((MAX−MIN)/(1+((EC50/x)^Hill)))), was used to perform non-linear regression analysis, generating concentration response curves. Reported parameters included agonist potency EC50 (the concentration causing half-maximal agonist response), antagonist potency IC50 (the concentration causing half-maximal inhibition of the agonist response for antagonist compounds) and efficacy (% MPE: percent of the maximal possible effect).
(In general: A change in cytosolic calcium serves as a functional read-out for many receptors and channels.)

In assay [2] the target is T1, hAT1R. The assay can be described thus: FLIPR calcium flux assay, Part II: antagonist activity against Angiotensin II. For hAT1R Antagonist Efficacy Antag (%) Ave: Angiotensin II 10 nM final concentration. The following applies: for Emax: read-out: hAT1R Antagonist Efficacy Antag (%) Ave; for IC50: read-out: hAT1R Antagonist IC50 Ave. In kind it is cell-based. The protocol:
as §1, §2, §3, §4, §5, §6

What is called IC50 is the concentration at which inhibition is half-maximal.

Each structure is given as a SMILES string. Residues, ends and D or L forms follow the SMILES beside them.

Turning to `CNCC(=O)N[C@@H](CCCNC(=N)N)C(=O)N[C@H](C(=O)N[C@@H](Cc1ccc(O)cc1)C(=O)N[C@H](C(=O)N[C@@H](Cc1c[nH]cn1)C(=O)N1CCC[C@H]1C(=O)N[C@H](Cc1cccc2ccccc12)C(=O)O)C(C)C)C(C)C` [Compound 1, Sar-Arg-Val-Tyr-Val-His-Pro-(D-1Nal)-OH] (HELM PEPTIDE1{[Sar].R.V.Y.V.H.P.[O=C(O)[C@@H](Cc1cccc2ccccc12)N[*:1]]}$$$$V2.0), the Emax was found to be 5% at hAT1R [1] and 99% at hAT1R [2]. The IC50 at hAT1R [2] worked out at 10.6 nM.

In the case of `CNCC(=O)N[C@@H](CCCNC(=N)N)C(=O)N[C@H](C(=O)N[C@@H](Cc1ccc(O)cc1)C(=O)N[C@@H](CCCCN)C(=O)N[C@@H](Cc1c[nH]cn1)C(=O)N1CCC[C@H]1C(=O)N[C@H](Cc1cccc2ccccc12)C(=O)O)C(C)C` [Compound 2, Sar-Arg-Val-Tyr-Lys-His-Pro-(D-1Nal)-OH] (HELM PEPTIDE1{[Sar].R.V.Y.K.H.P.[O=C(O)[C@@H](Cc1cccc2ccccc12)N[*:1]]}$$$$V2.0), on hAT1R [1], the Emax stood at 1%. Moreover, on hAT1R [2], the Emax is 100% and the IC50 came out at 16.5 nM.

In the case of `CNCC(=O)N[C@@H](CCCNC(=N)N)C(=O)N[C@H](C(=O)N[C@@H](Cc1ccc(O)cc1)C(=O)N[C@H](C(=O)N[C@@H](Cc1c[nH]cn1)C(=O)N1CCC[C@H]1C(=O)N[C@H](Cc1ccccc1C(F)(F)F)C(=O)O)C(C)C)C(C)C` [Compound 3, Sar-Arg-Val-Tyr-Val-His-Pro-(D-Phe(2-CF3))—OH] (HELM PEPTIDE1{[Sar].R.V.Y.V.H.P.[O=C(O)[C@@H](Cc1ccccc1C(F)(F)F)N[*:1]]}$$$$V2.0), on hAT1R [1], the Emax was 5%. Besides, at hAT1R [2], the Emax worked out at 99% and the IC50 came to 23.6 nM.

For the compound `CNCC(=O)N[C@@H](CCCNC(=N)N)C(=O)N[C@H](C(=O)N[C@@H](Cc1ccc(O)cc1)C(=O)N[C@H](C(=O)N[C@@H](Cc1c[nH]cn1)C(=O)N1CCC[C@H]1C(=O)N[C@H](Cc1ccccc1Cl)C(=O)O)C(C)C)C(C)C` [Compound 4, Sar-Arg-Val-Tyr-Val-His-Pro-(D-Phe(2-Cl))—OH] (HELM PEPTIDE1{[Sar].R.V.Y.V.H.P.[O=C(O)[C@@H](Cc1ccccc1Cl)N[*:1]]}$$$$V2.0), the Emax on hAT1R [1] was found to be 6%; on hAT1R [2], 99%. Also, the IC50 on hAT1R [2] came out at 10.7 nM.

Consider `CNCC(=O)N[C@@H](CCCNC(=N)N)C(=O)N[C@H](C(=O)N[C@@H](Cc1ccc(O)cc1)C(=O)N[C@H](C(=O)N[C@@H](Cc1c[nH]cn1)C(=O)N1CCC[C@H]1C(=O)N[C@H](Cc1ccccc1C#N)C(=O)O)C(C)C)C(C)C` [Compound 5, Sar-Arg-Val-Tyr-Val-His-Pro-(D-Phe(2-CN))—OH] (HELM PEPTIDE1{[Sar].R.V.Y.V.H.P.[N#Cc1ccccc1C[C@@H](N[*:1])C(=O)O]}$$$$V2.0), for which the values for the Emax on hAT1R [1] and at hAT1R [2] were 5% and 100%, respectively. The IC50 on hAT1R [2] is 59.6 nM.

With `CNCC(=O)N[C@@H](CCCNC(=N)N)C(=O)N[C@H](C(=O)N[C@@H](Cc1ccc(O)cc1)C(=O)N[C@H](C(=O)N[C@@H](Cc1c[nH]cn1)C(=O)N1CCC[C@H]1C(=O)N[C@H](Cc1ccccc1-c1ccccc1)C(=O)O)C(C)C)C(C)C` [Compound 6, Sar-Arg-Val-Tyr-Val-His-Pro-(D-Phe(2-Ph))—OH] (HELM PEPTIDE1{[Sar].R.V.Y.V.H.P.[O=C(O)[C@@H](Cc1ccccc1-c1ccccc1)N[*:1]]}$$$$V2.0), the results for the Emax at hAT1R [1] and at hAT1R [2] were 10% and 99%, respectively. The IC50 at hAT1R [2] was 16.6 nM.

`CNCC(=O)N[C@@H](CCCNC(=N)N)C(=O)N[C@H](C(=O)N[C@@H](Cc1ccc(O)cc1)C(=O)N[C@H](C(=O)N[C@@H](Cc1c[nH]cn1)C(=O)N1CCC[C@H]1C(=O)N[C@H](Cc1ccc(Cl)cc1Cl)C(=O)O)C(C)C)C(C)C` [Compound 7, Sar-Arg-Val-Tyr-Val-His-Pro-(D-Phe(2,4-diCl))—OH] (HELM PEPTIDE1{[Sar].R.V.Y.V.H.P.[O=C(O)[C@@H](Cc1ccc(Cl)cc1Cl)N[*:1]]}$$$$V2.0): the Emax on hAT1R [1] was determined as 12%. Moreover, on hAT1R [2], the Emax worked out at 99% and the IC50 is 6.4 nM.

`CNCC(=O)N[C@@H](CCCNC(=N)N)C(=O)N[C@H](C(=O)N[C@@H](Cc1ccc(O)cc1)C(=O)N[C@H](C(=O)N[C@@H](Cc1c[nH]cn1)C(=O)N1CCC[C@H]1C(=O)N[C@H](Cc1c(C)cccc1C)C(=O)O)C(C)C)C(C)C` [Compound 8, Sar-Arg-Val-Tyr-Val-His-Pro-(D-Phe(2,6-diMe))—OH] (HELM PEPTIDE1{[Sar].R.V.Y.V.H.P.[Cc1cccc(C)c1C[C@@H](N[*:1])C(=O)O]}$$$$V2.0): the Emax at hAT1R [1] was 3%; at hAT1R [2] it was 101%. In addition, on hAT1R [2], the IC50 was 8.5 nM.

`CNCC(=O)N[C@@H](CCCNC(=N)N)C(=O)N[C@H](C(=O)N[C@@H](Cc1ccc(O)cc1)C(=O)N[C@H](C(=O)N[C@@H](Cc1c[nH]cn1)C(=O)N1CCC[C@H]1C(=O)N[C@H](Cc1ccccc1C)C(=O)O)C(C)C)C(C)C` [Compound 9, Sar-Arg-Val-Tyr-Val-His-Pro-(D-Phe(2-Me))—OH] (HELM PEPTIDE1{[Sar].R.V.Y.V.H.P.[Cc1ccccc1C[C@@H](N[*:1])C(=O)O]}$$$$V2.0): the figures for the Emax at hAT1R [1] and on hAT1R [2] were 4% and 99%, respectively. At hAT1R [2], the IC50 is 13.9 nM.

As for `CNCC(=O)N[C@@H](CCCNC(=N)N)C(=O)N[C@H](C(=O)N[C@@H](Cc1ccc(O)cc1)C(=O)N[C@H](C(=O)N[C@@H](Cc1c[nH]cn1)C(=O)N1CCC[C@H]1C(=O)N[C@H](Cc1csc2ccccc12)C(=O)O)C(C)C)C(C)C` [Compound 10, Sar-Arg-Val-Tyr-Val-His-Pro-(D-(3-benzothienyl)alanine)-OH] (HELM PEPTIDE1{[Sar].R.V.Y.V.H.P.[O=C(O)[C@@H](Cc1csc2ccccc12)N[*:1]]}$$$$V2.0), the Emax on hAT1R [1] worked out at 5%. Moreover, on hAT1R [2], the Emax amounted to 99% and the IC50 stood at 9.5 nM.

Regarding `CNCC(=O)N[C@@H](CCCNC(=N)N)C(=O)N[C@H](C(=O)N[C@@H](Cc1ccc(O)cc1)C(=O)N[C@H](C(=O)N[C@@H](Cc1c[nH]cn1)C(=O)N1CCC[C@H]1C(=O)N[C@H](Cc1ccccc1Br)C(=O)O)C(C)C)C(C)C` [Compound 11, Sar-Arg-Val-Tyr-Val-His-Pro-(D-Phe(2-Br))—OH] (HELM PEPTIDE1{[Sar].R.V.Y.V.H.P.[O=C(O)[C@@H](Cc1ccccc1Br)N[*:1]]}$$$$V2.0), the Emax at hAT1R [1] worked out at 4%. On hAT1R [2], the Emax turned out to be 99% and the 50% inhibitory concentration (IC50) is 8.7 nM.

In the case of `CNCC(=O)N[C@@H](CCCNC(=N)N)C(=O)N[C@H](C(=O)N[C@@H](Cc1ccc(O)cc1)C(=O)N[C@@H](Cc1ccc(O)cc1)C(=O)N[C@@H](Cc1c[nH]cn1)C(=O)N1CCC[C@H]1C(=O)N[C@H](Cc1cccc2ccccc12)C(=O)O)C(C)C` [Compound 12, Sar-Arg-Val-Tyr-Tyr-His-Pro-(D-1Nal)-OH], the Emax on hAT1R [1] worked out at 5%; at hAT1R [2], 100%. The IC50 on hAT1R [2] is 3.4 nM.
